Data published in PubChem BioAssay AID179 (DTP/NCI, 2004).
Several values for one entry are separate records, joined by “and”; a condition that tells them apart may be missing. Equal entries are not always repeated. Activity calls are given as the source filed them.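 How the source made its calls: active means compounds giving half or more protection of infected cells from virus-caused growth loss, again on retest; inactive means the rest.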 Where a SMILES comes first, the peptide text is derived from it. The star is where a group is joined. Cbz = O=C(OCc1ccccc1)*; CH2Cl = ClC*

Tested on: CEM cells HIV-1 protection, formazan growth assay
Assay: NCI AIDS Antiviral Assay
Conditions: for IC50: measured here: growth of uninfected CEM cells
Method in brief: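 Protection of CEM cells against HIV-1 measured as cell growth via soluble formazan read-out, with five concentrations tested on both infected and uninfected cells; failure to protect may reflect toxicity.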

Row | Structure (SMILES) | EC50 | IC50 | outcome
1 | COc1nc(N)c2c3c([nH]c2c1C#N)C(C)(C)c1ccccc1N3C | > 30.2 µM | 29.5 µM | 
2 | O=C(COc1cc(=O)oc2ccccc12)c1ccccc1 | > 200 µM | 151 µM | 
3 | N#Cc1c(Br)n(C2OC(CO)C(O)C2O)c2ncn3ccnc3c12 (centres undefined) | > 200 µM | > 200 µM | 
4 | c1ccc2c(c1)CN1CCCC1CN2 (centres undefined) | > 200 µM | > 200 µM | 
5 | COc1cc2c(cc1OC)/C(=C/c1ccc(N(C)C)cc1)C=C2 | > 17 µM | > 17 µM | 
6 | CCCCC(=S)SSC(C)(C)C | > 200 µM | 55 µM | 
7 | CC(C)(C)C(=O)OCC1CCC[N+]2(C)CCCCC12 (centres undefined) | > 200 µM | > 200 µM | 
8 | CCOC(=O)c1c(-c2ccc(OC)cc2)c(C#N)c(=S)n(C2OC(COC(C)=O)C(OC(C)=O)C(OC(C)=O)C2OC(C)=O)c1C (centres undefined) | > 200 µM | 42.7 µM and 33.9 µM | 
9 | CC(C(=O)O)N(N=O)c1ccccc1 (centres undefined) | > 676 µM | > 676 µM | 
10 | O=c1ccc(-c2ccc(-n3ccnc3)cc2)nn1CCO | > 200 µM | > 200 µM | 
11 | O=[N+]([O-])/C=C/c1cc2ccc3ccccc3c2[nH]1 | > 200 µM | 1.02 µM | 
12 | CCN1C(c2ccccc2)=CC(c2ccccc2)(C(Cl)(Cl)Cl)C=C1c1ccccc1 | > 200 µM | 1.78 µM | 
13 | COc1ccc(C2=C(N)c3ncccc3C2=O)cc1 | > 200 µM | 132 µM | 
14 | c1csc(-c2csc(-c3ccsc3)c2)c1 | > 200 µM | > 200 µM | 
15 | C/C1=C\C(=O)OC2CC(CCC(C)/C=C/CC1)OC(O)(C1CSC(=O)N1)C2 (centres undefined) | > 129 µM | 3.98 µM | 
16 | S=C1CC(c2ccc(Sc3ccccc3)cc2)=Nc2ccccc2N1 | > 200 µM | 75.9 µM | 
17 | Cc1ccc(NC(=O)OCC(COc2ccc(Cl)cc2)OC(=O)Nc2ccc(C)cc2)cc1 (centres undefined) | > 15.5 µM | > 15.5 µM | 
18 | COC(=O)c1cc(C(=CCCCCN=[N+]=[N-])c2cc(Cl)c(OC)c(C(=O)OC)c2)cc(Cl)c1OC | 19.1 µM | > 200 µM | 
19 | CC1=CC(=O)Nc2cncnc2N1 | > 77.6 µM | > 77.6 µM | 
20 | CC(C)=CCC[C@@H](C)c1c(O)c(O)c(C)c2nccnc12 | > 200 µM | 38 µM | 
21 | Cc1cn(C2OCC(CO)C2N=[N+]=[N-])c(=O)[nH]c1=O (centres undefined) | > 200 µM | > 200 µM | 
22 | CC1=C/C(=C(/c2ccccc2S(=O)(=O)O)c2cc(C)c(O)c(CN(CC(=O)O)CC(=O)O)c2C)C(C)=C(CN(CC(=O)O)CC(=O)O)C1=O |  |  | inactive

Row | Structure (SMILES) | EC50 | IC50 | outcome
23 | COC(=O)C1C(=O)CC2C(C(=O)OC)C(=O)CC12 (centres undefined) | > 234 µM | 105 µM | 
24 | CC1=NN(C(=O)CC(=O)Nc2ccccc2)C(=O)C1N=Nc1ccc(S(N)(=O)=O)cc1 (centres undefined) | > 151 µM | 75.9 µM | 
25 | CCOC(=O)c1ccc(CSc2ccccc2)c([N+](=O)[O-])c1 | > 58.9 µM | > 58.9 µM | 
26 | CCCCNC(=O)C1C(=O)N(CCCC)C(=O)/C1=N\N (centres undefined) | > 25.7 µM | > 25.7 µM | 
27 | O=C(Nc1cccc(C(F)(F)F)c1)C(Cl)=C(Cl)Cl | > 200 µM | 2.34 µM | 
28 | Clc1c(C(Cl)(Cl)Cl)nsc1N1CCCCC1 | > 200 µM | 72.4 µM | 
29 | Cc1ccc2c3c4c(ccc13)C(C)(C)OC4=C(C(C)C)C2=O | > 200 µM | 15.8 µM | 
30 | CC(NC(=O)C(NC(=O)CNC(=O)OC(C)(C)C)C(C)C)C(=O)Oc1c(Cl)c(Cl)c(Cl)c(Cl)c1Cl (centres undefined) | > 200 µM | 29.5 µM | 
31 | O=C1c2c(F)c(F)c(F)c(F)c2SC2=Nc3cccc4cccc(c34)N12 | > 200 µM | 1 µM | 
32 | COCN(COC)c1nc(CCC(Br)(Br)Br)nc(N(COC)COC)n1 | > 83.2 µM | 37.2 µM | 
33 | C/C(CC(=O)Nc1ccc(Cl)c(Cl)c1)=N/NC(=O)C[n+]1ccccc1 | > 162 µM | > 162 µM | 
34 | CCOC(=O)C1(Cc2ccc3c(c2)CCC3)Cc2cc3c(cc2C1=O)CCC3 (centres undefined) | > 200 µM | 23.4 µM | 
35 | C1=C2/CC[C@H](Sc3ccccc3)C2C2(CCCCC/1)OCCO2 (some centres undefined) | > 200 µM | 38.9 µM | 
36 | COC(=O)c1cc(=O)c2scc(C)[n+]2[nH]1 | > 955 µM | > 955 µM | 
37 | CNC(=S)N/N=C(\C(=N/NC(=S)NC)c1ccccn1)c1ccccn1 | > 0.2 µM | 0.0513 µM | 
38 | Nc1ccc(S(=O)(=O)O)cc1[N+](=O)[O-] | > 1150 µM | > 1150 µM | 
39 | COc1cccc2c1C1(O)C2CCCC12OCCCO2 (centres undefined) | > 200 µM | > 200 µM | 
40 | Cc1ccc(C2C(Cl)C(=O)N2NC(=O)c2ccc(N)cc2)cc1 (centres undefined) | > 200 µM | 13.5 µM | 
41 | COc1ccc(OC)c2c(=O)c3ccccc3[nH]c12 |  |  | inactive
42 | CC(CCC[C@H](C)CO)[C@H]1[C@@H](O)C(O)C2[C@@H]3C[C@@H](O)C4(O)C[C@@H](O)CC[C@]4(C)C3CC[C@@]21C (some centres undefined) | > 200 µM | 107 µM | 
43 | N=C(N)Cc1ccc(NC(=O)c2ccc(C(=O)Nc3ccc(CC(=N)N)cc3)cc2)cc1 | > 70.8 µM | 22.4 µM | 
44 | CC1(C)O[C@H]2OC(CO)C(N=[N+]=[N-])[C@H]2O1 (some centres undefined) | > 200 µM | > 200 µM | 

Row | Structure (SMILES) | EC50 | IC50 | outcome
45 | NC(=O)N/N=C(\CC1OC(=O)c2ccccc21)c1ccc([N+](=O)[O-])cc1 (centres undefined) |  |  | inactive
46 | N#CC1=C(N)N(c2ccccc2)C(=S)N2CCCCCCCC12 (centres undefined) | > 200 µM | 186 µM | 
47 | CC(C)CC(NC(=O)OCc1ccccc1)C(=O)NC(Cc1ccccc1)C(=O)CCl (stereo not drawn) (Cbz-Leu-Phe-CH2Cl; configuration not given here) | > 20 µM | 1 µM | 
48 | Cc1nsc2cc(Cl)n(C)c(=O)c12 | > 6.76 µM | > 6.76 µM | 
49 | ClCCCc1ccccc1C1=NCCc2ccccc21 | > 200 µM | 5.25 µM | 
50 | Cn1nc(-c2ccccc2)c(C(=O)/C=C/c2ccc(F)cc2)c(N2CCCC2)c1=O | 26.3 µM | 36.3 µM | 
51 | C=C1[C@@H]2O[C@@H]3CC(=O)[C@@H](O)[C@]2(C(=O)N1OC)[C@H]3/C=C/C | > 115 µM | > 115 µM | 
52 | O=C(c1ccccc1)N1OCCCc2ccccc21 | > 200 µM | 195 µM | 
53 | CCOC(=O)/C(C#N)=C/c1[nH]c(C(=O)OCc2ccccc2)c(C)c1C |  |  | inactive
54 | OCC1OC(OC[C@H](COCc2ccccc2)OCc2ccccc2)C(O)C(O)C1O (some centres undefined) | > 35.5 µM | > 35.5 µM | 
55 | CNC(=S)N1CCN(C(C)=O)C1=S | > 200 µM | > 200 µM | 
56 | c1ccc(P(CCP(CCP(c2ccccc2)c2ccccc2)c2ccccc2)CCP(c2ccccc2)c2ccccc2)cc1 (centres undefined) | > 10.7 µM | > 10.7 µM | 
57 | Cc1ccc(NC(=O)CSc2nc(C)nc3c2sc(=S)n3-c2ccccc2)cc1 | > 200 µM | 138 µM | 
58 | CCCCCCCC/C=C/CCCCCCCC1CC(O)C(=O)O1 (centres undefined) | > 200 µM | 191 µM | 
59 | CC12CCC(C/C1=N\NC(N)=O)C2(C)C (centres undefined) | > 200 µM | > 200 µM | 
60 | O=C(O)c1ccc(CSc2ccccc2C(=O)O)cc1 | > 126 µM | > 126 µM | 
61 | COC1/C=C/OC2(C)Oc3c(C)c(O)c4c(O)c(c(/C=N/N5C(C)CN(Cc6ccc(NC(C)=O)cc6)CC5C)c(O)c4c3C2=O)NC(=O)C(C)=C/C=C/C(C)C(O)C(C)C(O)C(C)C(OC(C)=O)C1C (centres undefined) | > 200 µM | 9.12 µM | 
62 | O=C(ON=c1c2ccccc2ccc2ccccc12)c1cc([N+](=O)[O-])cc([N+](=O)[O-])c1 | > 200 µM | 20.4 µM | 
63 | COC(=O)C1CC2c3c(c4ccccc4n3C)CC(C1=O)N2C (centres undefined) |  |  | inactive
64 | O=Cc1cc2sc(C=O)cc2s1 |  |  | inactive
65 | CC1Oc2c(c(O)cc3oc(=O)cc(-c4ccccc4)c23)C(=O)C1C (centres undefined) |  |  | inactive
66 | NC(Cc1ccc[se]1)C(=O)O (centres undefined) | > 200 µM | > 200 µM | 

Row | Structure (SMILES) | EC50 | IC50 | outcome
67 | O=C1CCC[C@H]2O[C@@H](COCc3ccccc3)C[C@@H]12 | > 200 µM | 151 µM | 
68 | Nc1ccc(C2c3ccccc3Oc3ccccc32)cc1 | > 200 µM | 30.9 µM | 
69 | Nc1nn2cc3c(nc2c1N=Nc1ccccc1)-c1ccccc1C3 | > 200 µM | > 200 µM | 
70 | Nc1ccc2ncc(Nc3ccc(F)cc3)nc2c1 | > 269 µM | 135 µM | 
71 | COc1cc(OC)c2c(c1)OC1OC(=O)CC21 (centres undefined) | > 209 µM | > 209 µM | 
72 | COc1cccc(/C=C2\S/C(=N/Nc3nc(-c4ccc([N+](=O)[O-])cc4)cs3)NC2=O)c1O | > 200 µM | 29.5 µM | 
73 | N=c1c2sc3nc4ccccc4n3c2ncn1Cc1ccccc1 | > 100 µM | > 100 µM | 
74 | O=C1C(c2ccc([N+](=O)[O-])cc2)=[N+]([O-])c2ccc([N+](=O)[O-])cc21 |  |  | inactive
75 | CC1CC2C(=O)N(c3ccccc3)C(=O)C2c2c1c1ccccc1n2Cc1ccccc1 (centres undefined) |  |  | inactive
76 | Nc1nc2c(ncn2C2OC(CO)(C(F)(F)F)C(O)C2O)c(=O)[nH]1 (centres undefined) | > 200 µM | > 200 µM | 
77 | C[C@@H](NC(=O)c1ccccc1SC(=O)OCCBr)C(N)=O | 4.57 µM | > 200 µM | 
78 | C1CSCCCSCCSCCCSC1 | > 18.2 µM | > 18.2 µM | 
79 | O=C(c1c(O)cc(O)cc1O)c1c(-c2ccc(O)cc2)oc2cc(O)c3c(c12)O[C@H](c1ccc(O)cc1)[C@@H](O)C3 | 16.6 µM | 138 µM | 
80 | c1ccc2c(c1)c(N1CCCCC1)cc1nc3c(cc(N4CCCCC4)c4ccccc43)nc12 | > 100 µM | > 100 µM | 
81 | COC(=O)C(=O)C(C(=O)C(=O)Nc1ccc(Cl)c(Cl)c1)c1nc2ccc(C(=O)c3ccccc3)cc2[nH]c1=O (centres undefined) | > 33.1 µM | > 33.1 µM | 
82 | O=C1NCCN1C(=O)Nc1ccc(S(=O)(=O)c2ccc([N+](=O)[O-])cc2)cc1 | > 200 µM | 74.1 µM | 
83 | C=CCC(C(=O)OC)C1(C(=O)OC)c2[nH]c3ccccc3c2CCN1Cc1ccccc1 (centres undefined) | > 39.8 µM | > 39.8 µM | 
84 | C=C(C)[C@@H]1CC[C@]2(C(=O)O)CC[C@]3(C)[C@H](CC[C@@H]4[C@@]5(C)CC[C@H](O)C(C)(C)[C@@H]5CC[C@]43C)[C@@H]12 | > 200 µM | 20.9 µM | 
85 | Cc1oc2cc(O)cc(O)c2c(=O)c1C | > 200 µM | 155 µM | 
86 | CCOC(=O)C/C(N)=C(\C#N)C(=O)OCC |  |  | inactive
87 | CCCCC1=C(C(=O)N2CCOCC2)C2(OCCO2)C1=O | > 200 µM | 53.7 µM | 
